Converted amounts (≈) assume the structure as drawn.
How the values were obtained:
ECa-109 cell line [1] = assay: Reversal of vincristine-resistance in human Eca-109 cells assessed as fold reversal by measuring cell viability incubated for 48 hrs by CCK-8 method relative to vincristine alone; assay type: functional
ECa-109 cell line [2] = assay: Cytotoxicity against vincristine resistant human Eca-109 cells incubated for 48 hrs by CCK-8 method relative to control; assay type: functional; parameters: concentration or dose not given beside the values
ECa-109 cell line [3] = assay: Reversal of vincristine-resistance in human Eca-109 cells assessed as fold reversal by measuring cell viability at 5 uM incubated for 48 hrs by CCK-8 method relative to vincristine alone; assay type: functional
ECa-109 cell line [4] = assay: Reversal of VCR -resistance in human Eca-109 cells assessed as cell viability at 5 uM incubated for 48 hrs by CCK-8 method (reference value: 6830.0+/-537.0 nM); assay type: functional, cell-based; details: ECa-109, 48 h
ECa-109 cell line [5] = assay: Induction of apoptosis in vincristine resistant human Eca-109 cells assessed as necrotic cells at 5 uM incubated for 24 hrs in presence of vincristine by AnnexinV-FITC/PI staining based flow cytometric analysis (reference value: 0.35%); assay type: functional
ECa-109 cell line [6] = assay: Induction of apoptosis in vincristine resistant human Eca-109 cells assessed as necrotic cells at 5 uM incubated for 24 hrs by AnnexinV-FITC/PI staining based flow cytometric analysis (reference value: 0.25%); assay type: functional
ECa-109 cell line [7] = assay: Induction of apoptosis in vincristine resistant human Eca-109 cells assessed as viable cells at 5 uM incubated for 24 hrs in presence of vincristine by AnnexinV-FITC/PI staining based flow cytometric analysis (reference value: 89.2%); assay type: functional; details: read-out: Activity
ECa-109 cell line [8] = assay: Induction of apoptosis in vincristine resistant human Eca-109 cells assessed as late apoptotic cells at 5 uM incubated for 24 hrs by AnnexinV-FITC/PI staining based flow cytometric analysis (reference value: 7.19%); assay type: functional
ECa-109 cell line [9] = assay: Induction of apoptosis in vincristine resistant human Eca-109 cells assessed as late apoptotic cells at 5 uM incubated for 24 hrs in presence of vincristine by AnnexinV-FITC/PI staining based flow cytometric analysis (reference value: 6.01%); assay type: functional
[10] = Solubility of the compound in water at 25 degree C by shake flask method based UV-spectrophotometric method; assay type: physicochemical
ECa-109 cell line [11] = assay: Induction of apoptosis in vincristine resistant human Eca-109 cells assessed as early apoptotic cells at 5 uM incubated for 24 hrs by AnnexinV-FITC/PI staining based flow cytometric analysis (reference value: 2.30%); assay type: functional
ECa-109 cell line [12] = assay: Induction of apoptosis in vincristine resistant human Eca-109 cells assessed as early apoptotic cells at 5 uM incubated for 24 hrs in presence of vincristine by AnnexinV-FITC/PI staining based flow cytometric analysis (reference value: 4.43%); assay type: functional
ECa-109 cell line [13] = assay: Induction of apoptosis in vincristine resistant human Eca-109 cells assessed as viable cells at 5 uM incubated for 24 hrs by AnnexinV-FITC/PI staining based flow cytometric analysis (reference value: 90.3%); assay type: functional; details: read-out: Activity
[14] = Toxicity in nude mouse assessed as change in body weight at 0.2 mg/kg administered every 2 days for 21 days; assay type: organism-based; details: in vivo, 48 h, time 2 day
[15] = target: ATP-dependent translocase ABCB1 (Homo sapiens, UniProt P08183); assay: Binding affinity to P-gp in vincristine resistant human Eca-109 cells assessed as stabilization of protein at 67 degree C at 100 uM incubated for 30 mins by thermal shift assay; assay type: cell-based; details: eca-109, 0.5 h
ATP-dependent translocase ABCB1, sequence (P08183 whole entry): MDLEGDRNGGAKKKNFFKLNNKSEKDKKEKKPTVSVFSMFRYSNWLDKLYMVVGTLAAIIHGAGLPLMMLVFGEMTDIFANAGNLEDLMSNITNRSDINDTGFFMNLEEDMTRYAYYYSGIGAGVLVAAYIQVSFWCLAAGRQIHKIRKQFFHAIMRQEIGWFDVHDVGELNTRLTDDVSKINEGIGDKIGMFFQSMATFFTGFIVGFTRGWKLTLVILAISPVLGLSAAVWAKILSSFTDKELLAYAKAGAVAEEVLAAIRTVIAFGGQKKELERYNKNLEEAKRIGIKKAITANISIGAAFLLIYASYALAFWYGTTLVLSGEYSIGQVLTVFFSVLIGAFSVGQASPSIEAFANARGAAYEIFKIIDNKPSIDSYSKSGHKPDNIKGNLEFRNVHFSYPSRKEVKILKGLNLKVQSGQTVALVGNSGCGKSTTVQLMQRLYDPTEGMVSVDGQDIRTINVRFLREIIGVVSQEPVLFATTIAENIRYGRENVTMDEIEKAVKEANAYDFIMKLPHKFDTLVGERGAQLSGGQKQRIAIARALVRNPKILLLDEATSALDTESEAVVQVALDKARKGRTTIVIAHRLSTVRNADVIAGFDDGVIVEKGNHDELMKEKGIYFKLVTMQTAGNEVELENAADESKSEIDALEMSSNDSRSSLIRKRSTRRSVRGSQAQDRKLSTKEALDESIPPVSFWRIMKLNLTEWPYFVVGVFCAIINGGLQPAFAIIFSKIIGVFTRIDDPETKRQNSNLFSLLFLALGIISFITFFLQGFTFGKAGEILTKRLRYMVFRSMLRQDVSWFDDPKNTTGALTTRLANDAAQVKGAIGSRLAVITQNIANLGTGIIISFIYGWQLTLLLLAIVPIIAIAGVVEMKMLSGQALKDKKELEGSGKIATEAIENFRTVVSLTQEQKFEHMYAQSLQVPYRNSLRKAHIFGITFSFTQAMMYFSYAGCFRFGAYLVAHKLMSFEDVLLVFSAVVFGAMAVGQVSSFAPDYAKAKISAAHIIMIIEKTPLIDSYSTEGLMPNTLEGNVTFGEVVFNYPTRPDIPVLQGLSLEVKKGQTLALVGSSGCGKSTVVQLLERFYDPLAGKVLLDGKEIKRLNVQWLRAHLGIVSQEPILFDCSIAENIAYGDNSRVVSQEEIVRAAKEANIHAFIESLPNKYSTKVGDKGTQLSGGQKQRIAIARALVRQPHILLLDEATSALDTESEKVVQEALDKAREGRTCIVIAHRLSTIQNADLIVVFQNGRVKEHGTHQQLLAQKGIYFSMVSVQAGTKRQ

## COc1ccc(CC2c3cc(OC)c(OC)cc3CCN2C)cc1O (stereo unspecified)
ECa-109 cell line [1]
  fold change (FC): 2.5
ECa-109 cell line [2]
  Activity: 903%

## COc1cc2c(cc1OC)C(Cc1ccc(I)cc1)N(C)CC2 (stereo unspecified)
ECa-109 cell line [1]
  fold change (FC): 2.9
ECa-109 cell line [2]
  Activity: 99%

## COc1cc2c(cc1OC)C(Cc1ccc(OC)c(OCC3CCOCC3)c1)N(C)CC2 (stereo unspecified)
ECa-109 cell line [1]
  fold change (FC): 126.8
ECa-109 cell line [2]
  Activity: 94.4%

## COc1cc2c(cc1OC)C(CC1CCCCC1)N(C)CC2 (stereo unspecified)
ECa-109 cell line [1]
  fold change (FC): 3.7
ECa-109 cell line [2]
  Activity: 89.9%

## COc1cc2c(cc1OC)C(Cc1cccc(Cl)c1)N(C)CC2 (stereo unspecified)
ECa-109 cell line [1]
  fold change (FC): 23.6
ECa-109 cell line [2]
  Activity: 89%

## COc1cc2c(cc1OC)C(Cc1ccccc1O)N(C)CC2 (stereo unspecified)
ECa-109 cell line [1]
  fold change (FC): 7.1
ECa-109 cell line [2]
  Activity: 98.9%

## COc1cc2c(cc1OC)C(Cc1cccc(O)c1)N(C)CC2 (stereo unspecified)
ECa-109 cell line [1]
  fold change (FC): 4.3
ECa-109 cell line [2]
  Activity: 99.2%

## COc1cc2c(cc1OC)C(Cc1ccc(C#N)cc1)N(C)CC2 (stereo unspecified)
ECa-109 cell line [1]
  fold change (FC): 3.6
ECa-109 cell line [2]
  Activity: 99.8%

## COc1ccc(CC2c3cc(OC)c(OC)cc3CCN2C)cc1 (stereo unspecified)
ECa-109 cell line [1]
  fold change (FC): 7.4
ECa-109 cell line [2]
  Activity: 96.3%

## COc1cc2c(cc1OC)C(Cc1ccc(F)cc1)N(C)CC2 (stereo unspecified)
ECa-109 cell line [1]
  fold change (FC): 2.8
ECa-109 cell line [2]
  Activity: 99.3%

## COc1cc2c(cc1OC)C1Cc3ccc(OC)c(O)c3CN1CC2 (stereo unspecified)
ECa-109 cell line [1]
  fold change (FC): 1.2
ECa-109 cell line [2]
  Activity: 74.2%

## CCOc1ccc(CC2c3cc(OC)c(OC)cc3CCN2C)cc1OC (stereo unspecified)
ECa-109 cell line [1]
  fold change (FC): 11.7
ECa-109 cell line [2]
  Activity: 88%

## COc1cc2c(cc1OC)C(Cc1ccc(OC)c(OCCC(C)C)c1)N(C)CC2 (stereo unspecified)
ECa-109 cell line [1]
  fold change (FC): 205.7
ECa-109 cell line [2]
  Activity: 87.1%

## COc1cc2c(cc1OC)C(c1ccc(O)cc1)N(C)CC2 (stereo unspecified)
ECa-109 cell line [1]
  fold change (FC): 1.8
ECa-109 cell line [2]
  Activity: 87.7%

## COc1cc2c(cc1OC)C(Cc1ccc(OC)c(OCc3ccccc3)c1)N(Cc1ccccc1)CC2 (stereo unspecified)
ECa-109 cell line [1]
  fold change (FC): 42.7
ECa-109 cell line [2]
  Activity: 68.8%

## COc1cc2c(cc1OC)CN(C)CC2
ECa-109 cell line [1]
  fold change (FC): 7.7
ECa-109 cell line [2]
  Activity: 90.9%

## CN1CCc2cc(Br)ccc2C1=O
ECa-109 cell line [1]
  fold change (FC): 2
ECa-109 cell line [2]
  Activity: 88.6%

## COc1cc2c(cc1OC)C(Cc1ccccc1Cl)N(C)CC2 (stereo unspecified)
ECa-109 cell line [1]
  fold change (FC): 13.4
ECa-109 cell line [2]
  Activity: 96.3%

## CN1CCc2ccccc2C1=O
ECa-109 cell line [1]
  fold change (FC): 2.5
ECa-109 cell line [2]
  Activity: 91.3%

## COc1cc2c(cc1OC)C(Cc1ccc3c(c1)OCO3)N(C)CC2 (stereo unspecified)
ECa-109 cell line [1]
  fold change (FC): 5
ECa-109 cell line [2]
  Activity: 90.8%

## COc1cc2c(cc1OC)C(Cc1ccc(Br)cc1)N(C)CC2 (stereo unspecified)
ECa-109 cell line [1]
  fold change (FC): 1.6
ECa-109 cell line [2]
  Activity: 92.8%

## COc1cc2c(cc1OC)C(Cc1ccc(OCCC3CCCCC3)c(OC)c1)N(C)CC2 (stereo unspecified)
ECa-109 cell line [1]
  fold change (FC): 166.4
ECa-109 cell line [2]
  Activity: 54.3%

## COc1cc2c(cc1OC)C(Cc1ccc(OC)c(OCC3CCCCC3)c1)N(C)CC2 (stereo unspecified)
ECa-109 cell line [1]
  fold change (FC): 140.3
ECa-109 cell line [2]
  Activity: 88.1%

## CCOC(=O)CCCOc1cc(CC2c3cc(OC)c(OC)cc3CCN2C)ccc1OC (stereo unspecified)
ECa-109 cell line [1]
  fold change (FC): 219.3
ECa-109 cell line [2]
  Activity: 86.7%

## COc1cc2c(cc1OC)C(Cc1ccc(C)cc1)N(C)CC2 (stereo unspecified)
ECa-109 cell line [1]
  fold change (FC): 4.5
ECa-109 cell line [2]
  Activity: 95.9%

## COc1cc2c(cc1OC)C(=O)N(C)CC2
ECa-109 cell line [1]
  fold change (FC): 3.2
ECa-109 cell line [2]
  Activity: 98.4%

## COc1cc2c(cc1OC)C(CC(F)(F)F)N(C)CC2 (stereo unspecified)
ECa-109 cell line [1]
  fold change (FC): 3
ECa-109 cell line [2]
  Activity: 88.2%

## COc1ccc2cc1Oc1ccc(cc1)C[C@H]1c3c(cc4c(c3Oc3cc5c(cc3OC)CCN(C)[C@@H]5C2)OCO4)CCN1C [CEPHARANTHINE]
ECa-109 cell line [3]
  fold change (FC): 15.6
ECa-109 cell line [4]
  IC50: 437 nM

## COc1cc2c(cc1OC)C(Cc1ccccc1)N(C)CC2 (stereo unspecified)
ECa-109 cell line [1]
  fold change (FC): 4.4
ECa-109 cell line [2]
  Activity: 93.7%

## COc1cc2c(cc1OC)C(Cc1ccc(O)cc1)N(C)CC2 (stereo unspecified)
ECa-109 cell line [1]
  fold change (FC): 2.8
ECa-109 cell line [2]
  Activity: 98.1%

## COc1cc2c(cc1OC)C(Cc1ccc(Cl)cc1)N(C)CC2 (stereo unspecified)
ECa-109 cell line [1]
  fold change (FC): 8.6
ECa-109 cell line [2]
  Activity: 93%

## COc1cc2c(cc1OC)C(Cc1ccc(C(F)(F)F)cc1)N(C)CC2 (stereo unspecified)
ECa-109 cell line [1]
  fold change (FC): 3.5
ECa-109 cell line [2]
  Activity: 91.7%

## COc1cc2c(cc1OC)C(Cc1ccc([N+](=O)[O-])cc1)N(C)CC2 (stereo unspecified)
ECa-109 cell line [1]
  fold change (FC): 2.3
ECa-109 cell line [2]
  Activity: 87.1%

## COc1ccc2cc1Oc1ccc(cc1)C[C@H]1c3cc(c(OC)cc3CCN1C)Oc1c(OC)c(OC)cc3c1[C@H](C2)N(C)CC3 [FANCHININ]
ECa-109 cell line [3]
  fold change (FC): 232.6
ECa-109 cell line [5]
  Activity: 0.54%
ECa-109 cell line [6]
  Activity: 0.15%
ECa-109 cell line [7]
  viability at 5 µM: 67.5%
ECa-109 cell line [8]
  Activity: 8.01%
ECa-109 cell line [1]
  fold change (FC): 232.6
ECa-109 cell line [9]
  Activity: 13.1%
[10]
  solubility thermodynamic: 14.6 µg/mL (≈ 23.4 µM)
ECa-109 cell line [11]
  Activity: 3.68%
ECa-109 cell line [12]
  Activity: 18.8%
ECa-109 cell line [13]
  viability at 5 µM: 88.2%
ECa-109 cell line [4]
  IC50: 29.4 nM
ECa-109 cell line [2]
  Activity: 87.1%

## COc1cc2c(cc1OC)C(Cc1ccc(OC)c(OCCC3CCCCC3)c1)N(C)CC2 (stereo unspecified)
ECa-109 cell line [1]
  fold change (FC): 143.3
ECa-109 cell line [2]
  Activity: 81%

## COc1ccc(CC2c3cc(OC)c(OC)cc3CCN2C)cc1OC (stereo unspecified) [LAUDANOSINE]
ECa-109 cell line [1]
  fold change (FC): 12.9
ECa-109 cell line [2]
  Activity: 90.7%

## CC[C@]1(O)C[C@H]2CN(CCc3c([nH]c4ccccc34)[C@@](C(=O)OC)(c3cc4c(cc3OC)N(C=O)[C@H]3[C@@](O)(C(=O)OC)[C@H](OC(C)=O)[C@]5(CC)C=CCN6CC[C@]43[C@@H]65)C2)C1 [VINCRISTINE]
[14]
  Activity: Non-Toxic

## COc1ccc(C[C@@H]2c3cc(Oc4cc(C[C@@H]5c6cc(OC)c(OC)cc6CCN5C)ccc4O)c(OC)cc3CCN2C)cc1 [NEFERINE]
ECa-109 cell line [3]
  fold change (FC): 1.8
ECa-109 cell line [4]
  IC50: 3790 nM

## CCC1c2cc(OC)c(OC)cc2CCN1C (stereo unspecified)
ECa-109 cell line [1]
  fold change (FC): 4.2
ECa-109 cell line [2]
  Activity: 90.6%

## COc1cc2c(cc1OC)C(CC(C)C)N(C)CC2 (stereo unspecified)
ECa-109 cell line [1]
  fold change (FC): 3.3
ECa-109 cell line [2]
  Activity: 96.1%

## COc1cc(Br)c(CC2c3cc(OC)c(OC)cc3CCN2C)cc1OC (stereo unspecified)
ECa-109 cell line [1]
  fold change (FC): 16
ECa-109 cell line [2]
  Activity: 93.4%

## COc1cc2c(cc1OC)C(C)N(C)CC2 (stereo unspecified)
ECa-109 cell line [1]
  fold change (FC): 2.6
ECa-109 cell line [2]
  Activity: 91.1%

## COc1ccc(CCN(C)CCCC(C#N)(c2ccc(OC)c(OC)c2)C(C)C)cc1OC (stereo unspecified) [VERAPAMIL]
ECa-109 cell line [3]
  fold change (FC): 10.1
ECa-109 cell line [5]
  Activity: 0.48%
ECa-109 cell line [6]
  Activity: 0.12%
ECa-109 cell line [7]
  viability at 5 µM: 68.8%
ECa-109 cell line [8]
  Activity: 7.92%
ECa-109 cell line [1]
  fold change (FC): 10.1
ECa-109 cell line [9]
  Activity: 10.5%
ECa-109 cell line [11]
  Activity: 2.65%
ECa-109 cell line [12]
  Activity: 20.3%
ECa-109 cell line [13]
  viability at 5 µM: 89.3%
ECa-109 cell line [4]
  IC50: 679 nM
ECa-109 cell line [2]
  Activity: 95.6%

## COc1cc(CC2c3cc(OC)c(OC)cc3CCN2C)ccc1O (stereo unspecified)
ECa-109 cell line [1]
  fold change (FC): 2.8
ECa-109 cell line [2]
  Activity: 90.3%

## COc1cc2c(cc1OC)CN(CCc1ccc(NC(=O)c3cc(OC)c(OC)cc3NC(=O)c3cnc4ccccc4c3)cc1)CC2 [TARIQUIDAR]
ECa-109 cell line [1]
  fold change (FC): 187.4
ECa-109 cell line [2]
  Activity: 85.9%
[15]
  Activity: Active
